Reference: PMC11808397, “Development of selective nanomolar cyclic peptide ligands as GBA1 enzyme stabilisers” (RSC Chemical Biology, 2025)
Positions of bridges follow the written chain, without caps; N, C: chain ends. Non-standard residues stand in square brackets, D forms with d. Residues, ends and D or L forms follow the SMILES beside them.

Legend:
RAW 264.7 cells = assay: In situ competitive activity-based protein profiling (cABPP); format: cell-based; settings: 0-100 μM for 4 hours, then JJB75 10 nM for 2 hours, fluorescence SDS-gel scanning
Protocol: We further investigated GBA1 inhibition in cells. Human dermal fibroblasts were initially incubated with peptide concentrations ranging from 0.1 μM (from 0.001 μM for L4, D1 and D12) to 100 μM of each cyclic peptide for 3 hours. […] To further confirm the inability of these peptides to cross the cell membrane, we conducted in situ competitive activity-based protein profiling (cABPP) experiments using RAW 264.7 monocyte/macrophage-like cells. […]
Figure S6. […] Cells were washed, lysed and analysed by fluorescent readout. […]
Human fibroblasts (Cambrex-Lonza CC-2511) were cultured in complete DMEM/F12 growth medium supplemented with 10% (v/v) foetal calf serum and 0.1 % (w/v) penicillin/streptomycin at 37 °C and 5% CO2. […] GlcCer and GlcSph lipids were quantified as described below. In parallel, enzyme activity in cell lysates was measured using 3.7 mM 4-methylumbeliferone (4MU)-β-D-glucopyranoside in 150 mM McIlvaine buffer pH 5.2 supplemented with 0.1% bovine serum albumin (BSA) (w/v), 0.1% Triton X-100 (v/v), and 0.2% sodium taurocholate (w/v) as described above (see Table S1). […]
Cells were kept on ice and equal protein amounts were loaded per well on a 10% SDS-PAGE gel. Gels were scanned for fluorescence and then stained with Coomassie Brilliant Blue for loading control. […]
Levels of GlcCer and GlcSph were determined with a modified acidic Bligh & Dyer extraction (Figure 2 […]

[1] = molecular target: T1, recombinant human GBA1 (rhGBA1, Cerezyme) (Homo sapiens, UniProt P04062, R534H); assay: In vitro rhGBA1 inhibition, 4-MU-β-D-glucopyranoside hydrolysis; format: biochemical; settings: Cerezyme 14 nM, 3.7 mM 4-MU-β-D-glucopyranoside, McIlvaine pH 5.2, 30 min pre-incubation 37 °C + 30 min, mean ± SD from 3 technical triplicates
T1 construct: purchased Cerezyme
T1 sequence (P04062 40-536 R534H): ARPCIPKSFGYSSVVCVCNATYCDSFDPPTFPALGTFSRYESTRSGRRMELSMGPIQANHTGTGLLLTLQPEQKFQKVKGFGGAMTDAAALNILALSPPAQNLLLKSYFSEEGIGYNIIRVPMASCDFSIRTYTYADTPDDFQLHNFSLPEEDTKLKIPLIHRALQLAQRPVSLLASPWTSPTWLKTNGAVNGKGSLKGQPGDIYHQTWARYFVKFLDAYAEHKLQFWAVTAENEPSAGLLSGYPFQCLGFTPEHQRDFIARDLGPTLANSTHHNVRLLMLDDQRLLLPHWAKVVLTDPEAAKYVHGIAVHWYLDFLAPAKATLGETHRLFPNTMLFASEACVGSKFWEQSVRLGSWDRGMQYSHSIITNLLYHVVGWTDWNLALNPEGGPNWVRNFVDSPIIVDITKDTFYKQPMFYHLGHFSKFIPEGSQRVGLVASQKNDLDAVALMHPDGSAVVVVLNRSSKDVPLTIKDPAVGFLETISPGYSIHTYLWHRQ
Protocol: (§1) Based on the pull-down validation, a set of eight cyclic peptides (L1, L2, L4, L6, D1, D8, D12 and D13) were identified, synthesized, and evaluated for their inhibitory potency against recombinant human GBA1 (rhGBA1, Cerezyme®) and their selectivity over human β-glucosidases GBA2 and GBA3. Half-maximum inhibitory concentration (IC50) values for β-glucosidases were determined in vitro by measuring hydrolysis of 4-methylumbelliferyl-β-D-glucopyranoside (4-MU-β-D-Glu) fluorogenic substrate. […]
Pure product fractions were pooled, lyophilized, and dissolved again in DMSO before concentration was determined by A280 using a sample diluted in phosphate buffer at pH 7.4 and extinction coefficients determined from the sequence using the Expasy ProtParam online tool (https://web.expasy.org/protparam/). […]
2.5. In vitro IC50 and Ki measurements
For GBA1, IC50 values were determined using the recombinant human GBA1 (rhGBA1, Cerezyme) following described procedures.4 Enzyme activity was measured using 3.7 mM 4-methylumbeliferone (4MU)-β-D-glucopyranoside in 150 mM McIlvaine buffer pH 5.2 supplemented with 0.1% bovine serum albumin (BSA) (w/v), 0.1% Triton X-100 (v/v), and 0.2% sodium taurocholate (w/v). Varying concentrations of inhibitor (12.5 µL) were incubated with 12.5 µL of enzyme (final concentration 14 nM) at 37 °C for 30 min. Following this, 100 µL of 4MU substrate was added and the samples were again incubated at 37 °C for 30 min. The reaction was quenched using excess 1 M NaOH-glycine (200 µL, pH 10.3) and 4MU fluorescence was measured using a LS55 fluorimeter (λEx 366 nm and λEm 445 […]
30 min at 37 °C (12.5 µL) and subsequently incubated with the tested ligands at a range of concentrations for 30 min at 37 °C (12.5 µL), after which 100 µL 4MU-β-D-glucopyranoside was added for a final incubation of 30 min at 37 °C, quenched with 200 µL 1 M NaOH-glycine (pH 10.3) and fluorescence was measured. IC50 values were calculated using GraphPad Prism version 8.

GBA2 = molecular target: T2, GBA2 (Homo sapiens, UniProt Q9HCG7); assay: GBA2 inhibition in overexpressing HEK293T lysates; format: biochemical; settings: McIlvaine pH 5.8, 4-MU substrate
T2 construct: expressed in transfected cells
T2 sequence (Q9HCG7 1-927): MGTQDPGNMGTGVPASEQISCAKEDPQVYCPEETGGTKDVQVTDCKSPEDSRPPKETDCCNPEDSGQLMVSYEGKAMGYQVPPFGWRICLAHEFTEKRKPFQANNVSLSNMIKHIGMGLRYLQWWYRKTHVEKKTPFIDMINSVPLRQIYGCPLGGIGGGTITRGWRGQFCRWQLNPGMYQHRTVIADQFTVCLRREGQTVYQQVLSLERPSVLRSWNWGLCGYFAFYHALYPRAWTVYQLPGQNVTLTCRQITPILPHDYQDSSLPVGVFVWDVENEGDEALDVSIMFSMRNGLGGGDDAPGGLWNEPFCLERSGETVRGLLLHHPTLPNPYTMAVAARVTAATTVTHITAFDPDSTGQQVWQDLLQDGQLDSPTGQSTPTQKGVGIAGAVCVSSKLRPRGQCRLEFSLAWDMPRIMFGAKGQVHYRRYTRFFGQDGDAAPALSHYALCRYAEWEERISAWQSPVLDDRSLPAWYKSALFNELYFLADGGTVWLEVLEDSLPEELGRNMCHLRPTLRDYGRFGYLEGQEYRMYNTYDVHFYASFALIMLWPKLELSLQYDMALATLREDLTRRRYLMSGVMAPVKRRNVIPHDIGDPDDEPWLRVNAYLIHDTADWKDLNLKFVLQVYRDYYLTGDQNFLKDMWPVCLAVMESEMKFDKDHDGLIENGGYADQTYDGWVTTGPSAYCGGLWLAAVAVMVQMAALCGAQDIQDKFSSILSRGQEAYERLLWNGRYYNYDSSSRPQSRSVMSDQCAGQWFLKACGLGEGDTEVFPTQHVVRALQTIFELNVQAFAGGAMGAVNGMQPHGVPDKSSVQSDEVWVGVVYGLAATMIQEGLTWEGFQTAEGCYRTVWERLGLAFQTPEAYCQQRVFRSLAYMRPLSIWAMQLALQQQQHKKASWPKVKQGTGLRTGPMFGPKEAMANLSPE
Protocol: as §1
2.5. In vitro IC50 and Ki measurements […]
nM) at 37 °C for 30 min. Following this, 100 µL of 4MU substrate was added and the samples were again incubated at 37 °C for 30 min. The reaction was quenched using excess 1 M NaOH-glycine (200 µL, pH 10.3) and 4MU fluorescence was measured using a LS55 fluorimeter (λEx 366 nm and λEm 445 […]
GBA2 and GBA3 IC50 values were determined following a similar protocol,5 using stable GBA2 or GBA3 HEK293T over-expression cell lysates and McIlvaine buffer pH 5.8 with 0.1 % BSA (w/v) and 100 mM HEPES with 0.1 % BSA, respectively. Covalent inhibitor of endogenous GBA1 (1 µM Bodipy green-cyclophellitol β-epoxide activity based probe) was added for both GBA2 and GBA3 assays, and GBA2 inhibitor N-(5-adamantane-1-yl-methoxy-pentyl)-deoxynojirimycin, AMP-DNM at 1 nM) was added for GBA3 assay. Cell lysates were pre-incubated with the aforementioned GBA1/GBA2 inhibitors for 30 min at 37 °C (12.5 µL) and subsequently incubated with the tested ligands at a range of concentrations for 30 min at 37 °C (12.5 µL), after which 100 µL 4MU-β-D-glucopyranoside was added for a final incubation of 30 min at 37 °C, quenched with 200 µL 1 M NaOH-glycine (pH 10.3) and fluorescence was measured. IC50 values were calculated using GraphPad Prism version 8.

| Compound | competition with ABP JJB75 (cell permeability) (RAW 264.7 cells) | rhGBA1 IC50 [1] | IC50 ([1]; SD) [µM] | IC50 (GBA2) [µM] |
| --- | --- | --- | --- | --- |
| CC1=CC(C)=[N+]2C1=C(CCCCc1cn(C[C@@H]3[C@@H](O)[C@H](O)[C@@H](O)[C@@H]4O[C@H]34)nn1)c1c(C)cc(C)n1[B-]2(F)F [MDW933] | did show competition | – | – | – |
| CC[C@H](C)[C@@H]1NC(=O)[C@H](CC(C)C)NC(=O)[C@H](Cc2ccc(O)cc2)NC(=O)[C@H](C)NC(=O)[C@H](CCC(N)=O)NC(=O)[C@H](CO)NC(=O)[C@H](CCCCN)NC(=O)[C@H]([C@@H](C)O)NC(=O)[C@H](Cc2c[nH]c3ccccc23)NC(=O)[C@H]([C@@H](C)O)NC(=O)[C@H]([C@@H](C)CC)NC(=O)[C@H](C(C)C)NC(=O)[C@H](CCC(N)=O)NC(=O)[C@@H](Cc2ccc(O)cc2)NC(=O)CSC[C@@H](C(N)=O)NC(=O)[C@H](CCC(N)=O)NC1=O [D13] ({CH2CO}-[dY]QVITWTKSQAYLIQC-NH2; thioether N-16) | – | high micromolar range | 26.4 ± 3.31 | > 100 |
